# From ChEMBL document CHEMBL3045535, “Evaluation of lufenuron as a chemosterilant against fruit flies of the genus Anastrepha (Diptera: Tephritidae)” (2010)
# Activity calls are given as the source filed them. No cut-off for these calls is given here.
# Key:
# Anastrepha striata [1] = experiment: Reduction of fertility in 7 days old adult of Anastrepha striata assessed as reduction of egg hatching at 0.1 mg/g treated with diet measured after 1 day oviposition; format: functional; set-up: scale not given: the % may be the effect or the level left
# Anastrepha striata [2] = experiment: Reduction of fertility in 7 days old adult of Anastrepha striata assessed as reduction of egg hatching at 30 mg/g treated with diet measured after 5 days oviposition; format: functional; set-up: scale not given: the % may be the effect or the level left
# Anastrepha ludens [3] = experiment: Reduction of fertility in 7 days old adult of Anastrepha ludens assessed as reduction of egg hatching at 0.1 mg/g treated with diet measured after 1 day oviposition; format: functional; set-up: scale not given: the % may be the effect or the level left
# Anastrepha ludens [4] = experiment: Effect on fecundity in 7 days old adult of Anastrepha ludens at 0.1 to 30 mg/g treated with diet after 24 hr; format: functional, organism-based
# Anastrepha obliqua [5] = experiment: Effect on fecundity in 7 days old adult male of Anastrepha obliqua at 30 mg/g treated with diet after 24 hr in presence of untreated adult female of Anastrepha obliqua; format: functional, organism-based
# Anastrepha striata [6] = experiment: Effect on fecundity in 7 days old adult of Anastrepha striata at 0.1 to 30 mg/g treated with diet after 24 hr; format: functional, organism-based
# Anastrepha striata [7] = experiment: Reduction of fertility in 7 days old adult of Anastrepha striata assessed as reduction of egg hatching at 10 mg/g treated with diet measured after 9 days oviposition; format: functional; set-up: scale not given: the % may be the effect or the level left
# Anastrepha serpentina [8] = experiment: Reduction of fertility in 7 days old adult of Anastrepha serpentina assessed as reduction of egg hatching at 5 mg/g treated with diet measured after 11 days oviposition; format: functional; set-up: scale not given: the % may be the effect or the level left
# Anastrepha striata [9] = experiment: Reduction of fertility in 7 days old adult of Anastrepha striata assessed as reduction of egg hatching at 1 mg/g treated with diet measured after 7 days oviposition; format: functional; set-up: scale not given: the % may be the effect or the level left
# Anastrepha striata [10] = experiment: Reduction of fertility in 7 days old adult of Anastrepha striata assessed as reduction of egg hatching at 1 mg/g treated with diet measured after 5 days oviposition; format: functional; set-up: scale not given: the % may be the effect or the level left
# Anastrepha ludens [11] = experiment: Reduction of fertility in 7 days old adult of Anastrepha ludens assessed as reduction of egg hatching at 1 mg/g treated with diet measured after 7 days oviposition; format: functional; set-up: scale not given: the % may be the effect or the level left
# Anastrepha striata [12] = experiment: Reduction of fertility in 7 days old adult of Anastrepha striata assessed as reduction of egg hatching at 30 mg/g treated with diet measured after 3 days oviposition; format: functional; set-up: scale not given: the % may be the effect or the level left
# Anastrepha ludens [13] = experiment: Reduction of fertility in 7 days old adult of Anastrepha ludens assessed as reduction of egg hatching at 0.1 mg/g treated with diet measured after 3 days oviposition; format: functional; set-up: scale not given: the % may be the effect or the level left
# Anastrepha striata [14] = experiment: Reduction of fertility in 7 days old adult of Anastrepha striata assessed as reduction of egg hatching at 1 mg/g treated with diet measured after 1 day oviposition; format: functional; set-up: scale not given: the % may be the effect or the level left
# Anastrepha obliqua [15] = experiment: Reduction of fertility in 7 days old adult of Anastrepha obliqua assessed as reduction of egg hatching at 30 mg/g treated with diet measured after 1 day oviposition; format: functional; set-up: scale not given: the % may be the effect or the level left
# Anastrepha ludens [16] = experiment: Reduction of fertility in 7 days old adult of Anastrepha ludens assessed as reduction of egg hatching at 0.5 mg/g treated with diet measured after 5 days oviposition; format: functional; set-up: scale not given: the % may be the effect or the level left
# Anastrepha serpentina [17] = experiment: Reduction of fertility in 7 days old adult of Anastrepha serpentina assessed as reduction of egg hatching at 1 mg/g treated with diet measured after 5 days oviposition; format: functional; set-up: scale not given: the % may be the effect or the level left
# Anastrepha striata [18] = experiment: Reduction of fertility in 7 days old adult of Anastrepha striata assessed as reduction of egg hatching at 10 mg/g treated with diet measured after 1 day oviposition; format: functional; set-up: scale not given: the % may be the effect or the level left
# Anastrepha serpentina [19] = experiment: Reduction of fertility in 7 days old adult of Anastrepha serpentina assessed as reduction of egg hatching at 10 mg/g treated with diet measured after 9 days oviposition; format: functional; set-up: scale not given: the % may be the effect or the level left
# Anastrepha obliqua [20] = experiment: Reduction of fertility in 7 days old adult of Anastrepha obliqua assessed as reduction of egg hatching at 0.1 mg/g treated with diet measured after 7 days oviposition; format: functional; set-up: scale not given: the % may be the effect or the level left
# Anastrepha ludens [21] = experiment: Reduction of fertility in 7 days old adult of Anastrepha ludens assessed as reduction of egg hatching at 0.1 mg/g treated with diet measured after 9 days oviposition; format: functional; set-up: scale not given: the % may be the effect or the level left
# Anastrepha striata [22] = experiment: Reduction of fertility in 7 days old adult of Anastrepha striata assessed as reduction of egg hatching at 0.5 mg/g treated with diet measured after 11 days oviposition; format: functional; set-up: scale not given: the % may be the effect or the level left
# Anastrepha ludens [23] = experiment: Reduction of fertility in 7 days old adult of Anastrepha ludens assessed as reduction of egg hatching at 30 mg/g treated with diet measured after 9 days oviposition; format: functional; set-up: scale not given: the % may be the effect or the level left
# Anastrepha striata [24] = experiment: Reduction of fertility in 7 days old adult of Anastrepha striata assessed as reduction of egg hatching at 30 mg/g treated with diet measured after 7 days oviposition; format: functional; set-up: scale not given: the % may be the effect or the level left
# Anastrepha striata [25] = experiment: Reduction of fertility in 7 days old adult of Anastrepha striata assessed as reduction of egg hatching at 0.1 mg/g treated with diet measured after 3 days oviposition; format: functional; set-up: scale not given: the % may be the effect or the level left
# Anastrepha striata [26] = experiment: Reduction of fertility in 7 days old adult of Anastrepha striata assessed as reduction of egg hatching at 10 mg/g treated with diet measured after 11 days oviposition; format: functional; set-up: scale not given: the % may be the effect or the level left
# Anastrepha obliqua [27] = experiment: Reduction of fertility in 7 days old adult of Anastrepha obliqua assessed as reduction of egg hatching at 0.1 mg/g treated with diet measured after 9 days oviposition; format: functional; set-up: scale not given: the % may be the effect or the level left
# Anastrepha obliqua [28] = experiment: Reduction of fertility in 7 days old adult of Anastrepha obliqua assessed as reduction of egg hatching at 0.1 mg/g treated with diet measured after 11 days oviposition; format: functional; set-up: scale not given: the % may be the effect or the level left
# Anastrepha serpentina [29] = experiment: Reduction of fertility in 7 days old adult of Anastrepha serpentina assessed as reduction of egg hatching at 0.1 mg/g treated with diet measured after 11 days oviposition; format: functional; set-up: scale not given: the % may be the effect or the level left
# Anastrepha striata [30] = experiment: Reduction of fertility in 7 days old adult of Anastrepha striata assessed as reduction of egg hatching at 5 mg/g treated with diet measured after 7 days oviposition; format: functional; set-up: scale not given: the % may be the effect or the level left
# Anastrepha serpentina [31] = experiment: Reduction of fertility in 7 days old adult of Anastrepha serpentina assessed as reduction of egg hatching at 10 mg/g treated with diet measured after 1 day oviposition; format: functional; set-up: scale not given: the % may be the effect or the level left
# Anastrepha striata [32] = experiment: Reduction of fertility in 7 days old adult of Anastrepha striata assessed as reduction of egg hatching at 30 mg/g treated with diet measured after 9 days oviposition; format: functional; set-up: scale not given: the % may be the effect or the level left
# Anastrepha ludens [33] = experiment: Reduction of fertility in 7 days old adult of Anastrepha ludens assessed as reduction of egg hatching at 1 mg/g treated with diet measured after 5 days oviposition; format: functional; set-up: scale not given: the % may be the effect or the level left
# Anastrepha ludens [34] = experiment: Reduction of fertility in 7 days old adult of Anastrepha ludens assessed as reduction of egg hatching at 30 mg/g treated with diet measured after 11 days oviposition; format: functional; set-up: scale not given: the % may be the effect or the level left
# Anastrepha obliqua [35] = experiment: Reduction of fertility in 7 days old adult of Anastrepha obliqua assessed as reduction of egg hatching at 0.1 mg/g treated with diet measured after 1 day oviposition; format: functional; set-up: scale not given: the % may be the effect or the level left
# Anastrepha obliqua [36] = experiment: Reduction of fertility in 7 days old adult of Anastrepha obliqua assessed as reduction of egg hatching at 10 mg/g treated with diet measured after 11 days oviposition; format: functional; set-up: scale not given: the % may be the effect or the level left
# Anastrepha obliqua [37] = experiment: Reduction of fertility in 7 days old adult of Anastrepha obliqua assessed as reduction of egg hatching at 5 mg/g treated with diet measured after 9 days oviposition; format: functional; set-up: scale not given: the % may be the effect or the level left
# Anastrepha serpentina [38] = experiment: Effect on fertility in 7 days old adult male of Anastrepha serpentina at 30 mg/g treated with diet after 24 hr in presence of untreated adult female of Anastrepha serpentina; format: functional, organism-based
# Anastrepha striata [39] = experiment: Reduction of fertility in 7 days old adult of Anastrepha striata assessed as reduction of egg hatching at 0.1 mg/g treated with diet measured after 11 days oviposition; format: functional; set-up: scale not given: the % may be the effect or the level left
# Anastrepha serpentina [40] = experiment: Effect on fertility in 7 days old adult female of Anastrepha serpentina at 30 mg/g treated with diet after 24 hr in presence of untreated adult male of Anastrepha serpentina; format: functional, organism-based
# Anastrepha obliqua [41] = experiment: Reduction of fertility in 7 days old adult of Anastrepha obliqua assessed as reduction of egg hatching at 30 mg/g treated with diet measured after 9 days oviposition; format: functional; set-up: scale not given: the % may be the effect or the level left
smiles,measurement,setting,value
O=C(NC(=O)c1c(F)cccc1F)Nc1cc(Cl)c(OC(F)(F)C(F)C(F)(F)F)cc1Cl (racemic) [LUFENURON],Activity,Anastrepha striata [1],48.7%
same,Activity,Anastrepha striata [2],4%
same,Activity,Anastrepha ludens [3],26.7%
same,Activity,Anastrepha ludens [4],inactive
same,Activity,Anastrepha obliqua [5],inactive
same,Activity,Anastrepha striata [6],Active
same,Activity,Anastrepha striata [7],6%
same,Activity,Anastrepha serpentina [8],86.7%
same,Activity,Anastrepha striata [9],1.3%
same,Activity,Anastrepha striata [10],4.5%
same,Activity,Anastrepha ludens [11],20%
same,Activity,Anastrepha striata [12],8.7%
same,Activity,Anastrepha ludens [13],18.7%
same,Activity,Anastrepha striata [14],6.7%
same,Activity,Anastrepha obliqua [15],0%
same,Activity,Anastrepha ludens [16],10.7%
same,Activity,Anastrepha serpentina [17],71.8%
same,Activity,Anastrepha striata [18],2%
same,Activity,Anastrepha serpentina [19],85.3%
same,Activity,Anastrepha obliqua [20],8%
same,Activity,Anastrepha ludens [21],44.7%
same,Activity,Anastrepha striata [22],28.7%
same,Activity,Anastrepha ludens [23],15.3%
same,Activity,Anastrepha striata [24],0.7%
same,Activity,Anastrepha striata [25],80%
same,Activity,Anastrepha striata [26],6%
same,Activity,Anastrepha obliqua [27],6%
same,Activity,Anastrepha obliqua [28],10.7%
same,Activity,Anastrepha serpentina [29],80.3%
same,Activity,Anastrepha striata [30],0.7%
same,Activity,Anastrepha serpentina [31],18.3%
same,Activity,Anastrepha striata [32],7.3%
same,Activity,Anastrepha ludens [33],8%
same,Activity,Anastrepha ludens [34],15.3%
same,Activity,Anastrepha obliqua [35],14.7%
same,Activity,Anastrepha obliqua [36],0.7%
same,Activity,Anastrepha obliqua [37],0.7%
same,Activity,Anastrepha serpentina [38],inactive
same,Activity,Anastrepha striata [39],72.7%
same,Activity,Anastrepha serpentina [40],inactive
same,Activity,Anastrepha obliqua [41],1.3%
